Reference: patent publication US20240018140A1, “MODIFIED IMIDAZOPYRIDINES AS GLUCOSYLCERAMIDE SYNTHASE INHIBITORS” (Merck Sharp & Dohme LLC, priority 2020, published 2024)

Biological target: glucosylceramide synthase (GCS) (Homo sapiens (Human), UniProt Q16739)
Test: UDP-Glo glucosylceramide synthase biochemical assay
Settings: endogenous GCS in Golgi preparations from human A375 malignant melanoma skin cells; C6 ceramide and UDP-glucose substrates; 20 h incubation; UDP detected by luminescence
Excerpt: UDP-Glo™ Glucosylceramide Synthase Biochemical Assay
A UDP-Glo™ glucosylceramide synthase biochemical assay was utilized to evaluate the effect of test compounds on the activity of endogenous levels of GCS enzyme contained within Golgi preparations isolated from human A375 malignant melanoma skin cells. The UDP-Glo™ glucosylceramide synthase assay uses UDP-Glucose as a nucleotide-glycosyl donor and ceramide as substrate acceptor molecules. In the reaction, glucosylceramide synthase (GCS) transfers glucose from UDP-Glucose to ceramide. Glucosylceramide and UDP are released as products.
Using Promega's UDP-Glo™ Glycosyltransferase assay kit (Promega Corporation, Madison, WI, USA (Promega)), GCS activity was indirectly measured by detecting the amount of UDP produced. An aliquot of GCS enzyme (1.5 μg crude golgi preparation, total protein) and titrated test compound were aliquoted to each well and incubated for 30 minutes at room temperature. […] An equivalent volume of substrate mixture was then added to each well. Following a 20 h incubation at room temperature to allow for GCS turnover of substrate, an equal volume of UDP detection reagent (Promega) was added to each well and incubated for an additional 75 minutes at room temperature to simultaneously convert the accumulated UDP product into ATP and generate light in a luciferase reaction. The generated light was detected using a luminometer. […] luminescence values (RLUs) were normalized to mean “min” and “max” effects, as determined on each plate. “Min” was defined as the mean of the values of the wells treated with vehicle (DMSO) and which represent 0% inhibition; “max” was defined as the mean of the values of the wells treated with a reference inhibitor and which represent the 100% effect. Values for % Emax and EC50 were determined by best-fitting the normalized data to a curve in Activity Base along a four-parameter logistic nonlinear regression (4PL) model (based on the Levenberg-Marquardt algorithm and defined by the equation below): […]
where: n is 4PMin (bottom of the curve); m is 4PMax (top of the curve); i is IP (inflection point of curve); and p is slope. See Levenberg, K., “A Method for the Solution of Certain Problems in Least Squares”, Quart. Appl. Math. 2, (1944), pp 164-168 and Marquardt, D., “An Algorithm for Least Squares Estimation on Nonlinear Parameters”, SIAM J. Appl. Math. 11, (1963) pp 431-441.

glucosylceramide synthase (GCS), sequence (Q16739 whole entry): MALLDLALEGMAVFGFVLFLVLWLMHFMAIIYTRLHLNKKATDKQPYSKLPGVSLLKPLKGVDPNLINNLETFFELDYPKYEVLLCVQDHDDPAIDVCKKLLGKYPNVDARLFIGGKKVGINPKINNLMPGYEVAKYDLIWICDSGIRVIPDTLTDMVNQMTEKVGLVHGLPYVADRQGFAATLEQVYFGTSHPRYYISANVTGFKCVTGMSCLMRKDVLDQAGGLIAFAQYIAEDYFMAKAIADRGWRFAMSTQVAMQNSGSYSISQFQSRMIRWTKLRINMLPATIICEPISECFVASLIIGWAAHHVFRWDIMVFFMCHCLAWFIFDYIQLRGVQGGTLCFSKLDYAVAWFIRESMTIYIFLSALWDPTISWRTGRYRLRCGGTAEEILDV

First: O=C(NC12CCC(O)(CC1)C2)c1cn2cc(Cl)cc(-c3ccccc3OCC(F)(F)F)c2n1 [Compound 25, 6-chloro-N-(4-hydroxybicyclo[2.2.1]heptan-1-yl)-8-(2-(2,2,2-trifluoroethoxy)phenyl)imidazo[1,2-a]pyridine-2-carboxamide]
Second: COc1ccc(Cl)cc1-c1cccn2cc(C(=O)NC34CCC(O)(CC3)C4)nc12 [Compound 30, 8-(5-chloro-2-methoxyphenyl)-N-(4-hydroxybicyclo[2.2.1]heptan-1-yl)imidazo[1,2-a]pyridine-2-carboxamide]
The EC50 of the first is 2.2-fold lower: 2.5 nM for the first, 5.6 nM for the second.

Compared with `CC1(O)CCC(NC(=O)c2cn3cc(F)cc(-c4ccccc4OCC(F)(F)F)c3n2)CC1` (stereo not drawn) [Compound 26, cis or trans-6-fluoro-N-(4-hydroxy-4-methylcyclohexyl)-8-(2-(2,2,2-trifluoroethoxy)phenyl)imidazo[1,2-a]pyridine-2-carboxamide], `O=C(NC1CCCC1)c1cn2cc(F)cc(-c3ccccc3OCC(F)(F)F)c2n1` [Compound 28, N-cyclopentyl-6-fluoro-8-(2-(2,2,2-trifluoroethoxy)phenyl)imidazo[1,2-a]pyridine-2-carboxamide] is 9.4-fold higher in EC50: 0.79 nM for the first, 7.4 nM for the second. The first is the more potent here.

First: O=C(N[C@H]1CC[C@@H](CO)CC1)c1cn2cc(F)cc(-c3ccccc3OCC(F)(F)F)c2n1 [Compound 27, 6-fluoro-N-(cis-4-(hydroxymethyl)cyclohexyl)-8-(2-(2,2,2-trifluoroethoxy)phenyl)imidazo[1,2-a]pyridine-2-carboxamide]
Second: O=C(N[C@H]1CC[C@H](CO)CC1)c1cn2cccc(-c3ccccc3OCC(F)(F)F)c2n1 [Compound 29, N-(trans-4-(hydroxymethyl)cyclohexyl)-8-(2-(2,2,2-trifluoroethoxy)phenyl)imidazo[1,2-a]pyridine-2-carboxamide]
The EC50 of the first is 1.6-fold lower: 1.3 nM for the first, 2.1 nM for the second.

First: O=C(N[C@H]1CC[C@H](O)CC1)c1nc2c(-c3ccccc3OCC(F)(F)F)cccn2c1F [Compound 32, 3-fluoro-N-(trans-4-hydroxycyclohexyl)-8-(2-(2,2,2-trifluoroethoxy)phenyl)imidazo[1,2-a]pyridine-2-carboxamide]
Second: N#Cc1cc(-c2ccccc2OCC(F)(F)F)c2nc(C(=O)N[C@H]3CC[C@H](O)CC3)cn2c1 [Compound 39, 6-cyano-N-(trans-4-hydroxycyclohexyl)-8-(2-(2,2,2-trifluoroethoxy)phenyl)imidazo[1,2-a]pyridine-2-carboxamide]
The EC50 of the first is 3.4-fold higher: 47 nM for the first, 14 nM for the second. The second is the more potent here.

Going from `CC(C)(NC(=O)c1nc2c(-c3ccccc3OCC(F)(F)F)cccn2c1F)C(F)(F)F` [Compound 33, 3-fluoro-N-(1,1,1-trifluoro-2-methylpropan-2-yl)-8-(2-(2,2,2-trifluoroethoxy)phenyl)imidazo[1,2-a]pyridine-2-carboxamide] to `CC(C)(CO)NC(=O)c1cn2cc(C(F)(F)F)cc(-c3ccccc3OCC(F)(F)F)c2n1` [Compound 37, N-(1-hydroxy-2-methylpropan-2-yl)-8-(2-(2,2,2-trifluoroethoxy)phenyl)-6-(trifluoromethyl)imidazo[1,2-a]pyridine-2-carboxamide], the EC50 falls from 14 nM to 4.5 nM (3.1-fold).

`N#C[C@@]1(NC(=O)c2cn3cccc(-c4ccccc4OCC(F)(F)F)c3n2)CCOC1` [Compound 34, (S)-N-(3-cyanotetrahydrofuran-3-yl)-8-(2-(2,2,2-trifluoroethoxy)phenyl)imidazo[1,2-a]pyridine-2-carboxamide] and `O=C(N[C@H]1C[C@@H](CO)C1)c1cn2cccc(-c3ccccc3OCC(F)(F)F)c2n1` [Compound 40] are within 1.5-fold of each other in EC50: 5.9 nM for the first, 6.7 nM for the second.

With `O=C(N[C@H]1CC[C@H](O)CC1)c1cn2cc(C(F)(F)F)cc(-c3ccccc3OCC(F)(F)F)c2n1` [Compound 36, N-(trans-4-hydroxycyclohexyl)-8-(2-(2,2,2-trifluoroethoxy)phenyl)-6-(trifluoromethyl)imidazo[1,2-a]pyridine-2-carboxamide] the EC50 was 2.1 nM.
